The target of assay [1] is N-type calcium channels (Cav2.2) (Rattus norvegicus (Rat), UniProt Q02294). Kind of assay: biochemical. It is filed as binding. Particulars: rat cerebral cortex, [125I]ω-conotoxin GVIA 0.001 nM, read-out: IC50 Cav2.2.
Assay [2] relates to Pseudomonas aeruginosa ATCC 27853. Put plainly: MIC, broth microdilution (CLSI), reference strain. The note with it: CAMHB.
In assay [3] the test system is Escherichia coli ATCC 25922. Put plainly: MIC, broth microdilution (CLSI), reference strain. Particulars: CAMHB.
The test system of assay [4] is Staphylococcus aureus ATCC 13709. Put plainly: MIC, broth microdilution (CLSI), reference strain. Particulars: CAMHB.
Assay [5] deals with Acinetobacter baumannii ATCC 19606. Kind of assay: MIC, broth microdilution (CLSI), reference strain. Particulars: CAMHB.
Setting [6] is: class symbol, 30 minutes at room temperature.

Each structure is given as a SMILES string. Like-named read-outs stand apart in the source and are kept apart here. Square brackets hold non-standard residues; d marks the D form. Peptide text beside a SMILES is read from it. * marks the point of attachment. Phe(3-Cl) = N[C@@H](Cc1cccc(Cl)c1)C(=O)O; Phe(4-I) = N[C@@H](Cc1ccc(I)cc1)C(=O)O; Dab(3S-OH) = NC[C@H](O)[C@H](N)C(=O)O; His(τ-Me) = Cn1cnc(C[C@H](N)C(=O)O)c1; ΔZArg = N=C(N)NCC/C=C(\N)C(=O)O; aThr = C[C@H](O)[C@H](N)C(=O)O; dOrn = NCCC[C@@H](N)C(=O)O; Pra = C#CC[C@H](N)C(=O)O; NH(CH2)4NH2 = NCCCCN*

Broadly, the IC50 is the concentration at which inhibition is half-maximal. For the molecule `C[C@H](NC(=O)[C@@H](NC(=O)[C@@H](N)CCCCN)[C@@H](O)CN)C(=O)NCC(=O)N[C@H](CCCN)C(=O)N1CCC[C@H]1C(=O)N[C@@H](Cc1ccc(I)cc1)C(=O)N[C@@H](CCCCN)C(=O)N/C(=C\CCNC(=N)N)C(=O)O` [24.103] (H-K[Dab(3S-OH)]AG[dOrn]P[Phe(4-I)]K[ΔZArg]-OH), in assay [1] (setting [6]), the IC50 was greater than 300 nM. Also, the “Pa: MIC Pseudomonas aeruginosa ATCC 27853” value in assay [2] is recorded as “− (>32 μg/mL)”. The “Ec: MIC Escherichia coli ATCC 25922” value in assay [3] is recorded as “++ (≤8 μg/mL)”. Also, the “Sa: MIC Staphylococcus aureus ATCC 13709” value in assay [4] is “++ (≤8 μg/mL)”. Further, in assay [5], the “Ab: MIC Acinetobacter baumannii ATCC 19606” value is “− (>32 μg/mL)”.

On to `C[C@H](O)[C@H](NC(=O)[C@@H](NC(=O)[C@@H](N)CCCCN)[C@@H](O)CN)C(=O)NCC(=O)N[C@H](CCCN)C(=O)N1CCC[C@H]1C(=O)N[C@@H](Cc1cnc[nH]1)C(=O)N[C@@H](CCCCN)C(=O)N/C(=C\CCNC(=N)N)C(=O)O` [25.2] (H-K[Dab(3S-OH)][aThr]G[dOrn]PHK[ΔZArg]-OH), for which the IC50 in assay [1] (setting [6]) is greater than 300 nM. The “Pa: MIC Pseudomonas aeruginosa ATCC 27853” value in assay [2] is on record as “− (>32 μg/mL)”. Besides, the “Ec: MIC Escherichia coli ATCC 25922” value in assay [3] was “− (>32 μg/mL)”. Also, the “Sa: MIC Staphylococcus aureus ATCC 13709” value in assay [4] is recorded as “− (>32 μg/mL)”. Moreover, the “Ab: MIC Acinetobacter baumannii ATCC 19606” value in assay [5] is recorded as “− (>32 μg/mL)”.

As for `N=C(N)NCC/C=C(\NC(=O)[C@H](CCCCN)NC(=O)[C@H](Cc1c[nH]cn1)NC(=O)[C@@H]1CCCN1C(=O)[C@@H](CCCN)NC(=O)CNC(=O)[C@@H](NC(=O)[C@@H](NC(=O)[C@@H](N)CCCCN)[C@@H](O)CN)[C@@H](O)CN)C(=O)N[C@@H](CCCCN)C(=O)NCCCCN` [Odilomycin C, reference compound] (H-K[Dab(3S-OH)][Dab(3S-OH)]G[dOrn]PHK[ΔZArg]K-{NH(CH2)4NH2}; N-terminus and C-terminus assumed), the results for the IC50 in assay [1] (setting [6]) and in assay [1] (value in brackets) were less than 30 nM and 9 nM, respectively.

On to `C[C@H](NC(=O)[C@@H](NC(=O)[C@@H](N)CCCCN)[C@@H](O)CN)C(=O)NCC(=O)N[C@H](CCCN)C(=O)N1CCC[C@H]1C(=O)N[C@@H](Cc1ccc(O)cc1)C(=O)N[C@@H](CCCCN)C(=O)N/C(=C\CCNC(=N)N)C(=O)O` [24.138] (H-K[Dab(3S-OH)]AG[dOrn]PYK[ΔZArg]-OH), for which the IC50 in assay [1] (setting [6]) was greater than 300 nM. For the same molecule, in assay [2], the “Pa: MIC Pseudomonas aeruginosa ATCC 27853” value is “− (>32 μg/mL)”. In assay [3], the “Ec: MIC Escherichia coli ATCC 25922” value was “+ (≤32 μg/mL)”. The “Sa: MIC Staphylococcus aureus ATCC 13709” value in assay [4] is on record as “+ (≤32 μg/mL)”. In assay [5], the “Ab: MIC Acinetobacter baumannii ATCC 19606” value is “− (>32 μg/mL)”.

As to `C[C@H](N)C(=O)N[C@H](C(=O)N[C@H](C(=O)NCC(=O)N[C@H](CCCN)C(=O)N1CCC[C@H]1C(=O)N[C@@H](Cc1cnc[nH]1)C(=O)N[C@@H](CCCCN)C(=O)N/C(=C\CCNC(=N)N)C(=O)N[C@@H](CCCCN)C(=O)NCCCCN)[C@@H](O)CN)[C@@H](O)CN` [22.16] (H-A[Dab(3S-OH)][Dab(3S-OH)]G[dOrn]PHK[ΔZArg]K-{NH(CH2)4NH2}), the IC50 in assay [1] (setting [6]) was less than 30 nM. In assay [2], the “Pa: MIC Pseudomonas aeruginosa ATCC 27853” value is reported as “− (>32 μg/mL)”. For the same molecule, the “Ec: MIC Escherichia coli ATCC 25922” value in assay [3] is “+ (≤32 μg/mL)”. Moreover, in assay [4], the “Sa: MIC Staphylococcus aureus ATCC 13709” value was “++ (≤8 μg/mL)”. Besides, in assay [5], the “Ab: MIC Acinetobacter baumannii ATCC 19606” value is on record as “− (>32 μg/mL)”.

Take `C[C@H](NC(=O)[C@@H](NC(=O)[C@@H](N)CCCCN)[C@@H](O)CN)C(=O)NCC(=O)N[C@H](CCCN)C(=O)N1CCC[C@H]1C(=O)N[C@@H](Cc1cn(C)cn1)C(=O)N[C@@H](CCCCN)C(=O)N/C(=C\CCNC(=N)N)C(=O)N[C@@H](CCCCN)C(=O)NCCCCN` [24.15] (H-K[Dab(3S-OH)]AG[dOrn]P[His(τ-Me)]K[ΔZArg]K-{NH(CH2)4NH2}): the IC50 in assay [1] (setting [6]) is less than 30 nM. The “Pa: MIC Pseudomonas aeruginosa ATCC 27853” value in assay [2] is “+ (≤32 μg/mL)”. In assay [3], the “Ec: MIC Escherichia coli ATCC 25922” value is reported as “++ (≤8 μg/mL)”. Besides, the “Sa: MIC Staphylococcus aureus ATCC 13709” value in assay [4] is recorded as “++ (≤8 μg/mL)”. In assay [5], the “Ab: MIC Acinetobacter baumannii ATCC 19606” value is recorded as “− (>32 μg/mL)”.

For the molecule `C[C@H](NC(=O)[C@@H](NC(=O)[C@@H](N)CCCCN)[C@@H](O)CN)C(=O)NCC(=O)N[C@H](CCCN)C(=O)N1CCC[C@H]1C(=O)N[C@@H](Cc1cccc(Cl)c1)C(=O)N[C@@H](CCCCN)C(=O)N/C(=C\CCNC(=N)N)C(=O)O` [24.88] (H-K[Dab(3S-OH)]AG[dOrn]P[Phe(3-Cl)]K[ΔZArg]-OH), the IC50 in assay [1] (setting [6]) is greater than 300 nM. In assay [2], the “Pa: MIC Pseudomonas aeruginosa ATCC 27853” value was “− (>32 μg/mL)”. In assay [3], the “Ec: MIC Escherichia coli ATCC 25922” value is reported as “++ (≤8 μg/mL)”. For the same molecule, in assay [4], the “Sa: MIC Staphylococcus aureus ATCC 13709” value was “++ (≤8 μg/mL)”. For the same molecule, the “Ab: MIC Acinetobacter baumannii ATCC 19606” value in assay [5] was “− (>32 μg/mL)”.

Consider `CC(C)[C@H](NC(=O)[C@@H](NC(=O)[C@@H](N)CCCCN)[C@@H](O)CN)C(=O)NCC(=O)N[C@H](CCCN)C(=O)N1CCC[C@H]1C(=O)N[C@@H](Cc1cnc[nH]1)C(=O)N[C@@H](CCCCN)C(=O)N/C(=C\CCNC(=N)N)C(=O)O` [212.2] (H-K[Dab(3S-OH)]VG[dOrn]PHK[ΔZArg]-OH), for which the IC50 in assay [1] (setting [6]) was greater than 300 nM. For the same molecule, in assay [2], the “Pa: MIC Pseudomonas aeruginosa ATCC 27853” value is given as “− (>32 μg/mL)”. For the same molecule, the “Ec: MIC Escherichia coli ATCC 25922” value in assay [3] is reported as “− (>32 μg/mL)”. For the same molecule, in assay [4], the “Sa: MIC Staphylococcus aureus ATCC 13709” value is listed as “+ (≤32 μg/mL)”. Besides, the “Ab: MIC Acinetobacter baumannii ATCC 19606” value in assay [5] is on record as “− (>32 μg/mL)”.

In the case of `C#CC[C@H](NC(=O)[C@@H]1CCCN1C(=O)[C@@H](CCCN)NC(=O)CNC(=O)[C@H](C)NC(=O)[C@@H](NC(=O)[C@@H](N)CCCCN)[C@@H](O)CN)C(=O)N[C@@H](CCCCN)C(=O)N/C(=C\CCNC(=N)N)C(=O)O` [24.135] (H-K[Dab(3S-OH)]AG[dOrn]P[Pra]K[ΔZArg]-OH), the IC50 in assay [1] (setting [6]) was greater than 300 nM. For the same molecule, in assay [2], the “Pa: MIC Pseudomonas aeruginosa ATCC 27853” value is “− (>32 μg/mL)”. The “Ec: MIC Escherichia coli ATCC 25922” value in assay [3] is listed as “+ (≤32 μg/mL)”. Also, the “Sa: MIC Staphylococcus aureus ATCC 13709” value in assay [4] is reported as “+ (≤32 μg/mL)”. Moreover, the “Ab: MIC Acinetobacter baumannii ATCC 19606” value in assay [5] was “− (>32 μg/mL)”.

For `N=C(N)NCCC[C@@H](NC(=O)[C@H](CCCCN)NC(=O)[C@H](Cc1cnc[nH]1)NC(=O)[C@@H]1CCCN1C(=O)[C@@H](CCCN)NC(=O)CNC(=O)[C@@H](NC(=O)[C@@H](NC(=O)[C@@H](N)CCCCN)[C@@H](O)CN)[C@@H](O)CN)C(=O)N[C@@H](CCCCN)C(=O)NCCCCN` [22.5] (H-K[Dab(3S-OH)][Dab(3S-OH)]G[dOrn]PHK[dR]K-{NH(CH2)4NH2}), the IC50 in assay [1] (setting [6]) is less than 30 nM. For the same molecule, in assay [2], the “Pa: MIC Pseudomonas aeruginosa ATCC 27853” value is reported as “+ (≤32 μg/mL)”. In assay [3], the “Ec: MIC Escherichia coli ATCC 25922” value is on record as “+ (≤32 μg/mL)”. For the same molecule, the “Sa: MIC Staphylococcus aureus ATCC 13709” value in assay [4] is listed as “++ (≤8 μg/mL)”. Moreover, the “Ab: MIC Acinetobacter baumannii ATCC 19606” value in assay [5] was “− (>32 μg/mL)”.

Consider `C[C@H](NC(=O)[C@H](CCCCN)NC(=O)[C@H](Cc1cnc[nH]1)NC(=O)[C@@H]1CCCN1C(=O)[C@@H](CCCN)NC(=O)CNC(=O)[C@@H](NC(=O)[C@@H](NC(=O)[C@@H](N)CCCCN)[C@@H](O)CN)[C@@H](O)CN)C(=O)N[C@@H](CCCCN)C(=O)NCCCCN` [22.23] (H-K[Dab(3S-OH)][Dab(3S-OH)]G[dOrn]PHKAK-{NH(CH2)4NH2}), for which the IC50 in assay [1] (setting [6]) is less than 30 nM. Further, the “Pa: MIC Pseudomonas aeruginosa ATCC 27853” value in assay [2] is on record as “− (>32 μg/mL)”. The “Ec: MIC Escherichia coli ATCC 25922” value in assay [3] is “− (>32 μg/mL)”. Besides, the “Sa: MIC Staphylococcus aureus ATCC 13709” value in assay [4] is reported as “++ (≤8 μg/mL)”. In addition, in assay [5], the “Ab: MIC Acinetobacter baumannii ATCC 19606” value is “− (>32 μg/mL)”.

The values are drawn from patent US10626144B2, “Peptide derivatives and uses thereof” (Nosopharm, priority 2014, dated 2020).
